Assay results: article PMC8958510 (Journal of Medicinal Chemistry, 2022)
Converted amounts (≈) assume the structure as drawn. Like-named read-outs stand apart in the source and are kept apart here.

Columns and labels:
[1] = molecular target: T1, recombinant mouse AChE (Mus musculus, UniProt P21836); assay: Mouse acetylcholinesterase inhibition, Ellman's method; type: biochemical; conditions: recombinant mouse AChE; mean ± SEM; read-out: mAChE IC50
T1 construct: purchased Bio-Techne, Milan, Italy
T1 sequence (P21836 32-614): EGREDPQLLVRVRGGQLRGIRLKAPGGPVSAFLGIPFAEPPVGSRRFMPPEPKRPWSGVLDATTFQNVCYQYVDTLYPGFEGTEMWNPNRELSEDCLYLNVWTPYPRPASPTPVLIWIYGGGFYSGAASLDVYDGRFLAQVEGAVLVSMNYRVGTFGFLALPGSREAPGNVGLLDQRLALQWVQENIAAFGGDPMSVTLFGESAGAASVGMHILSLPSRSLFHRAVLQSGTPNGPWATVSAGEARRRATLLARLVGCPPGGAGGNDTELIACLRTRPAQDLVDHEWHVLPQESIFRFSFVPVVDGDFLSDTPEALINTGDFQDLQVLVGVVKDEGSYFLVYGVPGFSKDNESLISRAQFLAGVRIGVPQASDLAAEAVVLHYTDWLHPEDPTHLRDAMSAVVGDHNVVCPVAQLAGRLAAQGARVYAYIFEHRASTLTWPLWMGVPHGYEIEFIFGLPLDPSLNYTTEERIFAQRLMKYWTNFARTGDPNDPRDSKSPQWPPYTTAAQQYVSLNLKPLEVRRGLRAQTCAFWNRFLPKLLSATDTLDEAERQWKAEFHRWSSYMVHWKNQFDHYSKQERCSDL
Protocol: (§1) Human and mouse acetylcholinesterase and human butyrylcholinesterase inhibition
(§2) assay. The inhibitory activity of the target compounds toward recombinant human AChE
(§3) (Sigma-Aldrich, Milan, Italy), recombinant mouse AChE (Bio-Techne, Milan, Italy) and
(§4) human serum BChE (Sigma-Aldrich, Milan, Italy) was assessed by Ellman’s method,8 using
(§5) Stock solutions of the AChEs were prepared by
(§6) dissolving enzyme lyophilized powder (hAChE) or diluting the enzyme commercial solution
(§7) (mAChE) in 0.1 M potassium phosphate (pH 8.0) containing 0.1% Triton X-100, whereas the
(§8) stock solution of hBChE was prepared in 0.1% aq. gelatin and the stock solutions of the
(§9) compounds to be tested were made in MeOH (2-4 mM). The assay solution consisted of 0.02
(§10) unit mL‒1 of the enzyme, 340 M 5,5’-dithiobis(2-nitrobenzoic acid), and 550 M of the
(§11) substrate acetylthiocholine iodide (for AChE assay) or butyrylthiocholine iodide (for BChE
(§12) assay) in 0.1 M potassium phosphate (pH 8.0). Blank solutions containing all components
(§13) except the enzymes were prepared to account for the non-enzymatic hydrolysis of the
(§14) Prior the addition of the substrate, the assay solutions were incubated at 37 °C for 20 min.
(§15) After the addition of the substrate, cuvettes were rapidly transferred into a Jasco V-530
(§16) double beam spectrophotometer equipped with thermostated cuvette holders (37 °C), in order
(§17) for 240 s. For each tested compound, five increasing concentrations were assayed in order to
(§18) achieve inhibition percentages of 20‒80%. Each concentration was assayed in triplicate. IC50
(§19) values were calculated from the inhibition plot (% inhibition vs log[inhibitor]) and are
(§20) expressed as mean ± SEM. Each IC50 value is the average of at least two experiments, each

[2] = molecular target: T2, recombinant mouse sEH (Mus musculus, UniProt P34914); conditions: read-out: msEH IC50, average of three replicates
T2 sequence (P34914 1-554): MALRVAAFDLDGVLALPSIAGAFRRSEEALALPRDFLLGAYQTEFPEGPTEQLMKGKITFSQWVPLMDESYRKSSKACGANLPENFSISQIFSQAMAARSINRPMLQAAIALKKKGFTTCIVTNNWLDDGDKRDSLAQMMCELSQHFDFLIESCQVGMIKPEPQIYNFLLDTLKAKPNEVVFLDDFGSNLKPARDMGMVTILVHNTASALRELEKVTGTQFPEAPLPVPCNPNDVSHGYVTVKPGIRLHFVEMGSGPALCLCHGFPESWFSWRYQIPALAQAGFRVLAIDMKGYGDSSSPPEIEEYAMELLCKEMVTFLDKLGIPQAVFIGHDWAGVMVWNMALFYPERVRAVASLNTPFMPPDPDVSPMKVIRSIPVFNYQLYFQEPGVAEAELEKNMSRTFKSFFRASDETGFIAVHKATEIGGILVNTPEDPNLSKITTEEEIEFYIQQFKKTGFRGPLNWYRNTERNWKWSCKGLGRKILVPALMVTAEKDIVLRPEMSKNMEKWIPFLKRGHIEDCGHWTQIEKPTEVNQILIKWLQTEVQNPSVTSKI
Protocol: (§21) Human and mouse soluble epoxide hydrolase inhibition assay. The inhibitory activity of
(§22) the target compounds toward human and mouse sEH was determined by a fluorescence-based
(§23) assay, using purified recombinant human or mouse sEH proteins and CMNPC as a fluorescent
(§24) substrate.6 The enzymes were incubated at 30 °C with the inhibitors ([I]final = 0.4-100,000
(§25) nM) for 5 min in 100 mM sodium phosphate buffer (200 µL, pH 7.4) containing 0.1 mg mL‒1
(§26) of BSA and 1% of DMSO. The substrate (CMNPC) was then added ([S]final = 5 µM). Activity
(§27) was assessed by measuring the appearance of the fluorescent 6-methoxynaphthaldehyde
(§28) (Molecular Devices). Results were obtained by regression analysis from a linear region of the
(§29) curve and are given as IC50 values, i.e., the concentration of the compound that reduces the
(§30) sEH activity by 50%. All measurements were performed in triplicate and the mean is

[3] = molecular target: T3, recombinant human sEH (Homo sapiens, UniProt P34913); assay: Human soluble epoxide hydrolase inhibition, fluorescence-based assay (CMNPC substrate); type: biochemical; conditions: for IC50: recombinant human sEH, average of three replicates, read-out: hsEH IC50; for higher hsEH potency relative to TPPU: ratio of IC50s vs TPPU
T3 sequence (P34913 1-555): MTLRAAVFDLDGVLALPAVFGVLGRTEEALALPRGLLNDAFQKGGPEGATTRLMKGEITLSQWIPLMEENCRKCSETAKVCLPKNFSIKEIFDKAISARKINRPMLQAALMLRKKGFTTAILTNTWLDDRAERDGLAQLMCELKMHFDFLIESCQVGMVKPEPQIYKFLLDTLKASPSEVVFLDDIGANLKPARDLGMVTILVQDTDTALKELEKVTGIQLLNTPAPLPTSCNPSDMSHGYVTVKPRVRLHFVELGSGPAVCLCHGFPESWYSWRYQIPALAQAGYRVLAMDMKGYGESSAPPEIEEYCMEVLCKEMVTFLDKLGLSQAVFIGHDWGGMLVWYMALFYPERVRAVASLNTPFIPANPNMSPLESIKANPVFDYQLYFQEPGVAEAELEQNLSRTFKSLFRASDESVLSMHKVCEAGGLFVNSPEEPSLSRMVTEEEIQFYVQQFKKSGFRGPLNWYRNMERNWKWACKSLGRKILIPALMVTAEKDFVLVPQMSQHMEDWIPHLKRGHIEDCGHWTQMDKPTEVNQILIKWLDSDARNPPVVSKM
Protocol: as §21, §22, §23, §24, §25, §26, §27, §28, §29, §30

[4] = molecular target: T4, human serum BChE (Homo sapiens, UniProt P06276); type: biochemical; conditions: read-out: hBChE IC50
T4 construct: human serum BChE (Sigma-Aldrich, Milan, Italy) was assessed by Ellman’s method; purchased Sigma-Aldrich, Milan, Italy; host or cells: human serum
Protocol: as §1, §2, §3, §4, §5, §6, §7, §8, §9, §10, §11, §12, §13, §14, §15, §16, §17, §18, §19, §20

[5] = molecular target: T5, recombinant human AChE (Homo sapiens, UniProt P22303); type: biochemical; conditions: for IC50: recombinant human AChE, mean ± SEM, read-out: hAChE IC50
T5 construct: purchased Sigma-Aldrich, Milan, Italy
Protocol: as §1, §2, §3, §4, §5, §6, §7, §8, §9, §10, §11, §12, §13, §14, §15, §16, §17, §18, §19, §20

[6] = Microsomal stability, mouse liver microsomes; type: in vitro ADME; conditions: mouse, liver microsomes (pooled), pH 7.4; for microsomal CLint at 1 h, 0.05 µM / half-life at 1 h, 0.05 µM: 37 °C; for half-life at 1 h, 0.05 µM: read-out: t1/2, mouse microsomes; for remaining at 1 h, 0.05 µM: after 1 h of incubation at 37 °C, read-out: % remaining compound, mouse microsomes
Protocol: (§31) Microsomal stability screen. The microsomal stability of the target compounds was
(§32) determined at the Innopharma Drug Screening and Pharmacogenomics Platform (Santiago de
(§33) Compostela, Spain). The human, rat and mice pooled microsomes, with a protein content of 20 mg mL‒1, were purchased from Tebu-Xenotech. The compounds were incubated in a 96-well microplate at 37 °C with the microsomes in 50 mM phosphate buffer (pH = 7.4) containing as cofactors 30 mM MgCl2, 10 mM NADP, 100 mM glucose-6-phosphate and 40
(§34) Samples (75 µL) were taken from each well at 0, 10, 20, 40 and 60 min and transferred to a microplate. 4 °C Acetonitrile (75 µL) and internal standard (rolipram) were then added for inactivating the microsomes, and water with 0.5% formic acid (30 µL) was subsequently added for improving the chromatographic conditions, keeping the mixtures at 4 °C. The plate was centrifuged at 46,000 g for 30 min at 15 °C and supernatants were taken and analyzed in a UPLC-MS/MS system (UPLC QSM Waters Acquity) using reverse phase Acquity UPLC® HSST3 1.7 μm (2.1 mm × 50 mm, Waters) as the stationary phase, 0.1% formic acid in water (A) / 0.1% formic acid in acetonitrile (B) as the mobile phase, a flow of 0.8 mL min‒1, and the
(§35) The metabolic stability of the compounds was calculated from the logarithm of the remaining compound at each of the time points studied.

[7] = Microsomal stability, rat liver microsomes; type: in vitro ADME; conditions: rat, liver microsomes (pooled), pH 7.4; for remaining at 1 h, 0.05 µM: after 1 h of incubation at 37 °C, read-out: % remaining compound, rat microsomes
Protocol: as §31, §32, §33, §34, §35

[8] = Microsomal stability, human liver microsomes; type: in vitro ADME; conditions: human, liver microsomes (pooled), pH 7.4; for remaining at 1 h: after 1 h of incubation at 37 °C, read-out: % remaining compound, human microsomes
Protocol: as §31, §32, §33, §34, §35

[9] = Kinetic aqueous solubility screen (light scattering); conditions: 1% DMSO / 99% PBS
Protocol: Aqueous solubility screen. The kinetic aqueous solubility of the target compounds was
as §32
Compostela, Spain). Ten mM stock solutions of the tested compounds were serially diluted,
NEPHELOstar Plus reader (BMG LABTECH). The results were adjusted to a segmented
linear regression to obtain the maximum concentration in which the compounds were soluble.

[10] = test system: SH-SY5Y cells; assay: Cytotoxicity in SH-SY5Y cells, propidium iodide stain; type: cell-based, human; conditions: for toxicity to SH-SY5Y cells LD50: propidium iodide staining after 24 h of incubation, mean ± SD; for LD50 (SH-SY5Y): supplementary CSV
Protocol: Cytotoxicity in SH-SY5Y cells. The cytotoxicity of the target compounds was evaluated in
Minimum Essential Medium / Ham’s-F12 (1:1, v/v) medium (Biowest), supplemented with
non-essential amino acids, 10% fetal bovine serum, 1 mM glutamine and 50 µg mL‒1
gentamycin (all reagents from Gibco, Thermo Fisher Scientific). For the experiments, cells
were seeded at 3 × 10^5 cells mL‒1 (100 µL per well) in 96-well plates (Nunc). After 24 h, the
test compounds were added concentrated from stock solutions in DMSO and culture medium
to triplicate wells to obtain the final different concentrations up to 100 µM in 0.1% DMSO.
Compounds were incubated for further 24 h. At termination, cytotoxicity was analyzed by the
propidium iodide (PI) fluorescence stain assay. All compounds were tested in three
independent experiments using different cell passages. The PI assay measures cell death. PI
enters into the cells with damaged membranes and greatly increases the fluorescence upon
binding to DNA. PI reagent (Molecular Probes) at the final concentration of 7.5 µg mL‒1 was
added to the cells and incubated for 1 h. The resulting fluorescence was measured by a Flx-
death induced by the compounds was calculated from to the fluorescence of treated cells (Ft)
relative to that of control cells (Fmin) and cells incubated with Triton X100 (Fmax) as the 0%
and 100% cell death, respectively [% = ((Ft-Fmin)/(Fmax-Fmin)) × 100]. All compounds
were tested in three independent experiments using different cell passages. LC50 values were
calculated for each experiment and the results are expressed as mean ± SD.

[11] = PAMPA-BBB assay for brain permeability; conditions: for BBB permeation class: PAMPA-BBB prediction; for Papp: pig, PAMPA
Protocol: PAMPA-BBB assay for brain permeability. The brain permeability (Pe) of the target
compounds was assessed by an in vitro parallel artificial membrane permeability assay for
blood‒brain barrier penetration (PAMPA-BBB assay),12 which uses a lipid extract of porcine
brain membrane as a BBB model. The assay was validated by comparing experimental and
reported Pe values of a set of fourteen commercial drugs (Table S2 of the Supporting
On the basis of this equation and the limits established by Di et al. for BBB
independent experiments, each performed in triplicate, were carried out for each compound.

[12] = molecular target: PAS of Electrophorus electricus AChE (EeAChE) (Electrophorus electricus, UniProt O42275); conditions: read-out: KD of propidium for PAS; value assumed for the calculation; ref 11 (Supporting Information); cited from earlier work
[13] = human serum BChE, mean ± SEM, n.a. = not active, % inhibition <10% at 100 μM
[14] = 37 °C, read-out: t1/2, rat microsomes
[15] = 37 °C, read-out: t1/2, human microsomes

T4 sequence (P06276 29-602): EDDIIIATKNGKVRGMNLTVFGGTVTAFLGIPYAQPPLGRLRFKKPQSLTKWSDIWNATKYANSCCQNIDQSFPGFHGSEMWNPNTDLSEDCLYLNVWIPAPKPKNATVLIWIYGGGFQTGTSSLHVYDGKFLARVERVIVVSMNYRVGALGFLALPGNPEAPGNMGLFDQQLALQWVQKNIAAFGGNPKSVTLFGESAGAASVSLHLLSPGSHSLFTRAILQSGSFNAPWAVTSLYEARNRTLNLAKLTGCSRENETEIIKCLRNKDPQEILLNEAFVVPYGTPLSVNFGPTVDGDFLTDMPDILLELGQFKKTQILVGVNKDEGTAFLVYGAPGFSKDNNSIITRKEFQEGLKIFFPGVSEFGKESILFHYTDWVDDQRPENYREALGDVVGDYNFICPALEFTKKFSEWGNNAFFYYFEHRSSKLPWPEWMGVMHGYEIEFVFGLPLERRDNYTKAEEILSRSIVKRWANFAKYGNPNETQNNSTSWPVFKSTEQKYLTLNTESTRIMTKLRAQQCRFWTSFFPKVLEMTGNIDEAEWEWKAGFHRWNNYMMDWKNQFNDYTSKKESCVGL
T5 sequence (P22303 32-614): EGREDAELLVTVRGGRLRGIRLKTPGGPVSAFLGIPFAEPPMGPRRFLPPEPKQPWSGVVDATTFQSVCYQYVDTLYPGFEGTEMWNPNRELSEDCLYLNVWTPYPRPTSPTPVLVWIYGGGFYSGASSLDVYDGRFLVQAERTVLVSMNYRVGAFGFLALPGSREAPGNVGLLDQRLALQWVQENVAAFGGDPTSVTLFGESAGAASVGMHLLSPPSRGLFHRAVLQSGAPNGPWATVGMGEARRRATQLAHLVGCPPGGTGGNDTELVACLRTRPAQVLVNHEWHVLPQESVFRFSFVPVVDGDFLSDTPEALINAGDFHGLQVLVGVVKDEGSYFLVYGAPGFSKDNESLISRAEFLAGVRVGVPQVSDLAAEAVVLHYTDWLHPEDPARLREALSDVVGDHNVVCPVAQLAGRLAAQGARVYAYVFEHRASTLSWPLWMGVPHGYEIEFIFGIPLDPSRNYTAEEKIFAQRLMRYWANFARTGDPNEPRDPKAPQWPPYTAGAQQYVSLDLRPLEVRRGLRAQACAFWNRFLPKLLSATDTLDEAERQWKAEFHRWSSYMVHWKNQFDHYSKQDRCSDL
Chain of PAS of Electrophorus electricus AChE (EeAChE) (O42275 24-633): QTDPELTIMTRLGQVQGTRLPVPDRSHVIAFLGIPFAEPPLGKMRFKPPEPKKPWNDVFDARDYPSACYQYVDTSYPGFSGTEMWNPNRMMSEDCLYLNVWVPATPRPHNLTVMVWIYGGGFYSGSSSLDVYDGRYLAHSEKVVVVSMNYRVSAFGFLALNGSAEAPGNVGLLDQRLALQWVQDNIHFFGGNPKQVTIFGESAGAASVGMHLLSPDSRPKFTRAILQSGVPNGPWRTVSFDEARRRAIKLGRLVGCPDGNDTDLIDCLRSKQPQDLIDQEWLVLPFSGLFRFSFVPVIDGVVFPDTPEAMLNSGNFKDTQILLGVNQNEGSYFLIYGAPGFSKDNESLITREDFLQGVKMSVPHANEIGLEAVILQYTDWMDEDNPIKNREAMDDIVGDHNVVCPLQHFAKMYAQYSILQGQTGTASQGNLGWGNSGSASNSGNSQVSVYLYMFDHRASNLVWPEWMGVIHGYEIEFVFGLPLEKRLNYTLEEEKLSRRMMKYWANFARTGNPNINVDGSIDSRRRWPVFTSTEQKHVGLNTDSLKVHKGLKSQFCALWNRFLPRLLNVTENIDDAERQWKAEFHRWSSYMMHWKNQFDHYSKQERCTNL

Row | Structure (SMILES) | IC50 [1] | IC50 [2] | IC50 [3] | IC50 [4, 13] | IC50 [5] | microsomal CLint at 1 h, 0.05 µM [6] | half-life at 1 h, 0.05 µM [6] | remaining at 1 h, 0.05 µM [6] | microsomal CLint at 1 h, 0.05 µM ([7]; 37 °C) | remaining at 1 h, 0.05 µM [7] | microsomal CLint at 1 h ([8]; 37 °C) | remaining at 1 h [8] | solubility at 2 h [9] | toxicity to SH-SY5Y cells LD50 [10] | LD50 (SH-SY5Y) [10] | BBB permeation class [11] | Papp [11] | also measured
1 | Nc1c2c(nc3cc(Cl)ccc13)CCCC2 [compound 2, 6-chlorotacrine, reference compound] | 19.8 ± 0.7 nM | > 50000 nM | 49100 nM | – | – | – | – | – | – | – | – | – | – | – | – | – | – | –
2 | O=C(Nc1ccc(OC(F)(F)F)cc1)NC1CCN(C(=O)CCCNc2c3c(nc4cc(Cl)ccc24)CCCC3)CC1 [12b, 1-{1-{4-[(6-Chloro-1,2,3,4-tetrahydroacridin-9-yl)amino]butanoyl}piperidin-4-yl}-3-[4-(trifluoromethoxy)phenyl]urea] | 4.01 ± 0.24 nM | 15 nM | 1 nM | 416 ± 35 nM | 2.71 ± 0.06 nM | 78 µL/min/mg | 9 min | 1% | 69 µL/min/mg | 2% | 19 µL/min/mg | 34% | 13.7 µM (≈ 8.28 µg/mL) | >100 µM | > 100 ?M | CNS+ (High permeation, CNS+: Pe > 5.2) | 9.1 ± 0.1 ×10⁻⁶ cm/s | hAChE potency relative to 6-chlorotacrine [5]: 5 fold; half-life at 1 h, 0.05 µM [7, 14]: 10 min; half-life at 1 h [8, 15]: 36 min
3 | CC[N+](C)(CC)CCC[n+]1c(-c2ccccc2)c2cc(N)ccc2c2ccc(N)cc21 [propidium, propidium iodide] | – | – | – | – | – | – | – | – | – | – | – | – | – | – | – | – | – | Kd [12]: 700 nM
4 | CN1C(C(=O)Nc2ccccn2)=C(O)c2ccccc2S1(=O)=O [Piroxicam, reference compound] | – | – | – | – | – | – | – | – | – | – | – | – | – | – | – | – | 2.3 ± 0.1 ×10⁻⁶ cm/s | –
5 | CC1=C[C@H]2Cc3nc4cc(Cl)ccc4c(N)c3[C@@H](C1)C2 [(+)-3, (+)-huprine Y, reference compound] | 474 ± 22 nM | > 50000 nM | > 50000 nM | – | – | – | – | – | – | – | – | – | – | – | – | – | – | IC50 [4]: 170 ± 17 nM
6 | O=C(Nc1ccc(OC(F)(F)F)cc1)NC1CCN(C(=O)CCNc2c3c(nc4cc(Cl)ccc24)CCCC3)CC1 [12a, 1-{1-{3-[(6-Chloro-1,2,3,4-tetrahydroacridin-9-yl)amino]propanoyl}piperidin-4-yl}-3-[4-(trifluoromethoxy)phenyl]urea] | 35.4 ± 2 nM | 12.1 nM | 0.4 nM | 947 ± 6 nM | 14.5 ± 0.3 nM | 109 µL/min/mg | 6 min | 1% | 56 µL/min/mg | 4% | 57 µL/min/mg | 4% | 42.6 µM (≈ 25.1 µg/mL) | 92.8 ± 52.3 µM | 92.8 ± 52.3 ?M | CNS+ (High permeation, CNS+: Pe > 5.2) | 9.2 ± 0.2 ×10⁻⁶ cm/s | half-life at 0.05 µM [7, 14]: 12 min; half-life [8, 15]: 12 min; higher hsEH potency relative to TPPU [3]: 9 fold
7 | CC1=C[C@H]2Cc3nc4cc(Cl)ccc4c(NCCCCC(=O)N4CCC(NC(=O)Nc5ccc(OC(F)(F)F)cc5)CC4)c3[C@@H](C1)C2 [(+)-15, (+)-(7R,11R)-1-{1-{5-[(3-Chloro-6,7,10,11-tetrahydro-9-methyl-7,11-methanocycloocta[b]quinolin-12-yl)amino]pentanoyl}piperidin-4-yl}-3-[4-(trifluoromethoxy)phenyl]urea] | 102 ± 18 nM | 14.5 nM | 3.1 nM | 179 ± 26 nM | 1660 ± 450 nM | – | – | – | – | – | – | – | – | – | – | – | – | –
8 | CC1=C[C@@H]2Cc3nc4cc(Cl)ccc4c(NCCCCC(=O)N4CCC(NC(=O)Nc5ccc(OC(F)(F)F)cc5)CC4)c3[C@H](C1)C2 [(−)-15, (−)-(7S,11S)-1-{1-{5-[(3-Chloro-6,7,10,11-tetrahydro-9-methyl-7,11-methanocycloocta[b]quinolin-12-yl)amino]pentanoyl}piperidin-4-yl}-3-[4-(trifluoromethoxy)phenyl]urea] | 2.61 ± 0.16 nM | 34.3 nM | 0.4 nM | 615 ± 34 nM | 1.94 ± 0.67 nM | 172 µL/min/mg | 4 min | 0.4% | 54 µL/min/mg | 4% | 144 µL/min/mg | 1% | 5.6 µM (≈ 3.75 µg/mL) | >100 µM | > 100 ?M | CNS+ (High permeation, CNS+: Pe > 5.2) | 9.9 ± 0.3 ×10⁻⁶ cm/s | hAChE potency relative to its enantiomer ([5]; enantioselectivity): 850 fold; half-life at 1 h, 0.05 µM [7, 14]: 13 min; half-life at 1 h [8, 15]: 5 min; hsEH potency relative to its enantiomer ([3]; enantioselectivity): 8 fold; higher hsEH potency relative to TPPU [3]: 9 fold
9 | CC1=C[C@@H]2Cc3nc4cc(Cl)ccc4c(N)c3[C@H](C1)C2 [(−)-3, (−)-huprine Y, reference compound] | 0.62 ± 0.03 nM | > 50000 nM | 41000 nM | – | – | – | – | – | – | – | – | – | – | – | – | – | – | IC50 [4]: 222 ± 17 nM
